Earlier results, collected in patent US20230129262A1, “METHODS AND PHARMACEUTICAL COMPOSITIONS OF THROMBOXANE A2 RECEPTOR ANTAGONIST FOR THE TREATMENT OF COVID-19” (priority 2020, published 2023).
Where two headings read alike, the source gives them in different places.

Legend:
TP receptor [1] = conditions: TP receptor blockade, several cited studies
TP receptors = target: T1, TP receptors (Rattus norvegicus, UniProt P34978); conditions: infusion of the TxA2 mimetic, preclinical studies (Bertolino, Valentin et al. 1995)
T1 sequence (P34978 1-341): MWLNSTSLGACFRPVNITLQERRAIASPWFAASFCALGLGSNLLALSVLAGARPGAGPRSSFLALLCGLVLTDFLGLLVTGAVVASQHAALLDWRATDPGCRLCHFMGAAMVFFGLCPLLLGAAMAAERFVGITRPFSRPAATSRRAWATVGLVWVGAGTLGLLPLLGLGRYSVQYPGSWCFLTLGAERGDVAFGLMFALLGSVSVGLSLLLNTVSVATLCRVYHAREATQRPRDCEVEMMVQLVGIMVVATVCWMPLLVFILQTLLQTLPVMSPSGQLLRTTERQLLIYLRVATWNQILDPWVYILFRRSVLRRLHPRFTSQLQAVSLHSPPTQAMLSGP

platelet activation = conditions: Tarantino, Amadio et al. 2016
TP receptor [2] = target: T2, TP receptor (Mus musculus, UniProt P30987); conditions: bleomycin model of pulmonary fibrosis (Suzuki, Kropski et al. 2021)
T2 sequence (P30987 1-341): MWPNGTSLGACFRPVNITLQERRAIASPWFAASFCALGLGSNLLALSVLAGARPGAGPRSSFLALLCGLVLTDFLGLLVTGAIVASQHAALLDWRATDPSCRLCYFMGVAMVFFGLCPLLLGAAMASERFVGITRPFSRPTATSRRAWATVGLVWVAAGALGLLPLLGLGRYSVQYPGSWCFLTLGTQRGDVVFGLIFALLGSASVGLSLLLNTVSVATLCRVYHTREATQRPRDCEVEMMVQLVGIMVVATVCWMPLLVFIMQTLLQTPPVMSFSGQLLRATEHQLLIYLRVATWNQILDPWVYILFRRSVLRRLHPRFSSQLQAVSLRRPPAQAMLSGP

TP receptor [3] = target: T2, TP receptor; conditions: chronic hypoxia in mice, potentiated in COX-2 knock-out mice (Cathcart, Tamosiuniene et al. 2008)
TP receptor [4] = target: T2, TP receptor; conditions: model of Duchenne muscular dystrophy (West, Galindo et al. 2019)
TP receptor [5] = target: T3, TP receptor (Homo sapiens, UniProt P21731); conditions: patients with acute lung injury; by selectively relaxing pulmonary veins and decreasing post-capillary resistance (Schuster, Kozlowski et al. 2001)
T3 sequence (P21731 1-343): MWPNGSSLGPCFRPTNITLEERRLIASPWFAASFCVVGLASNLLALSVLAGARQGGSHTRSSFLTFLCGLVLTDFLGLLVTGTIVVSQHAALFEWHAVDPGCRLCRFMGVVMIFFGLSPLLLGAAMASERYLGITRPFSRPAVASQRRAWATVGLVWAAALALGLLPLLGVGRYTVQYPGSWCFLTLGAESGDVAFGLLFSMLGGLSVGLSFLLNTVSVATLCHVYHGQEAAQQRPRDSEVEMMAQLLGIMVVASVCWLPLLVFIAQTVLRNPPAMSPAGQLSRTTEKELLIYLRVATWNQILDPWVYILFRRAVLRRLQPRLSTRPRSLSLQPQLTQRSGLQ

TP receptor [6] = target: T2, TP receptor; conditions: pressure-overload model of pulmonary arterial hypertension (West, Voss et al. 2016)
TP receptor [7] = tested on: TP receptor

C[C@H](c1ccccc1)[C@@H](O)/C=C/[C@@H]1[C@H](C/C=C\CCCC(=O)O)[C@H]2CC[C@@H]1O2 [SQ28668]
lung injury-associated pulmonary hypertension, hypoxemia, and pulmonary edema (TP receptor [1]): inhibited

CCCCCCC(=O)NCC(=O)NC[C@H]1[C@@H](C/C=C\CCCC(=O)O)[C@@H]2CC[C@H]1O2 [SQ30741]
lung injury-associated pulmonary hypertension, hypoxemia, and pulmonary edema (TP receptor [1]): inhibited

CCCCC[C@H](O)/C=C/[C@@H]1[C@@H](C/C=C\CCCC(=O)O)[C@H]2CO[C@@H]1C2 [U-16,619, 9,11-dideoxy-9α, 11α-methanoepoxy prostaglandin F2α]
plasma fluid and protein accumulation in the lung (TP receptors): strongly increased

CC(=O)Oc1ccccc1C(=O)O [aspirin, acetylsalicylic acid]
mortality (high-dose aspirin (1,000 mg/day), compared to propensity score matched COVID-19 controls (Liu, Huang et al. 2021)): reduced | risk of mechanical ventilation, ICU admission, and in-hospital mortality (low-dose aspirin use, hospitalized COVID-19 patients (Chow, Khanna et al. 2021)): decreased risk | platelet activation in venous thrombosis (platelet activation): prevents

CCCCCNC(=O)c1coc([C@H]2[C@@H](Cc3ccccc3CCC(=O)O)[C@@H]3CC[C@H]2O3)n1 [ifetroban, 3-[2-[[(1S,2R,3S,4R)-3-[4-(pentylcarbamoyl)-1,3-oxazol-2-yl]-7-oxabicyclo[2.2.1]heptan-2-yl]methyl]phenyl]propanoic acid]
development of fibrosis (TP receptor [2]): blocked | pulmonary hypertension and pulmonary intravascular thrombosis (TP receptor [3]): prevented | cardiac function (TP receptor [4]): improves | right ventricular fibrosis (TP receptor [4]): dramatically decreases | pulmonary capillary pressure (TP receptor [5]): reduced | cardiac function (TP receptor [6]): improves | right ventricular fibrosis (TP receptor [6]): dramatically decreases | lung injury-associated pulmonary hypertension, hypoxemia, and pulmonary edema (TP receptor [1]): inhibited | arterial and tissue oxygenation (TP receptor [7]; compared with septic controls (Quinn and Slotman 1999)): significantly increased | systemic and pulmonary vasoconstriction (TP receptor [7]; sepsis animal model (Quinn and Slotman 1999)): ameliorated
